Results on two compounds are retold here after publication PMC10269165 (Antimicrobial Agents and Chemotherapy, 2023).

For orientation: IC50 means the concentration at which inhibition is half-maximal.

SMILES strings stand for the structures. Read-outs that look alike come from different tables or passages of the source.

In series [1] the test system is catechol O-methyltransferase (COMT). On the set-up: method as in PMID 15755652, doi:10.1007/s40495-018-0157-y. To be noted: cited from earlier work.
A short description of series [2]: WST-1 cytotoxicity assay in HCT-8 cells. The class given is cell-based, human. The settings on record: human, HCT-8 cells (human ileocecal colorectal adenocarcinoma), read-out: Mean IC50 ± SEM, Cytotoxicity. How it is done: Compounds were tested for cytotoxicity in human ileocecal colorectal adenocarcinoma cells (HCT-8) (ATCC CCL-244; RRID:CVCL_2478) by using the cell proliferation reagent WST-1 (Roche) according to the manufacturer’s protocol. The WST-1 assay is a quantitative colorimetric assay for measurement of metabolically active cells. This assay is based on the reduction of the tetrazolium salt (WST-1) by viable cells. About 5 × 10^4 HCT-8 cells were seeded per well in 96-well plates and grown overnight in 200 μL of RPMI 1640 medium (without phenol red; Gibco) supplemented with 2.5 g/L of glucose, 1 mM sodium pyruvate, 1.5 g/L of sodium bicarbonate, 10% heat-inactivated FBS (Gibco), and 1× antibiotic-antimycotic (Gibco) at 37°C with 5% CO2 in a humidified incubator. Upon reaching 80 to 90% confluence, cells were treated with various concentrations of the test compounds for 24 h. Control wells received equivalent volumes of DMSO used in the reconstituted compounds. After 24 h of culture, 10 μL of the WST-1 reagent was added to each well, and the plates were incubated in the dark for 1 h at 37°C with 5% CO2. The plates were well agitated, and 150 μL of the medium from each well was transferred to a new clear flat-bottomed black 96-well plate (Corning). The absorbance was read at a test wavelength of 440 nm and a reference wavelength of 690 nm using a multimode microplate reader (Spectra Max iD3; Molecular Devices, USA). All of the reactions were prepared in triplicate. The dose-response curves were generated by nonlinear regression analysis with GraphPad PRISM software using control-normalized data to determine the half-maximal cytotoxicity (IC50) concentrations.
For orientation: Formazan colour is commonly taken as a measure of viable cells.

Series [3] relates to catechol O-methyltransferase (COMT). On the set-up: method as in PMID 15755652, doi:10.1007/s40495-018-0157-y. To be noted: cited from earlier work. The source holds these as a separate data set.

As for `O=c1c(O)cccc2cc(O)c(O)c(O)c12` [NSC35676, purpurogallin], the “inhibition of COMT catalytic activity” value in series [1] and in series [3] was “inhibit the catalytic activity” in each case. For the same compound, in series [2], the half-inhibitory concentration (IC50) at 24 h turned out to be 566 ± 55.9 µM.

Consider `CO[C@@]12[C@H](COC(N)=O)C3=C(C(=O)C(C)=C(N)C3=O)N1C[C@H]1[C@@H]2N1C` (stereo partly shown) [NSC56410], for which the IC50 at 24 h in series [2] stood at 188 ± 4.19 µM.
